Data reported in ChEMBL document CHEMBL2074215, “The effects of pluronics block copolymers and Cremophor EL on intestinal lipoprotein processing and the potential link with P-glycoprotein in Caco-2 cells” (Pharm Res, 2003).

Biological target: ATP-dependent translocase ABCB1 (Homo sapiens, UniProt P08183)
Experiment: TP_TRANSPORTER: transepithelial transport of cyclosporin A in Caco-2 cells
Assay type: functional, cell-based

ATP-dependent translocase ABCB1, sequence (P08183 whole entry): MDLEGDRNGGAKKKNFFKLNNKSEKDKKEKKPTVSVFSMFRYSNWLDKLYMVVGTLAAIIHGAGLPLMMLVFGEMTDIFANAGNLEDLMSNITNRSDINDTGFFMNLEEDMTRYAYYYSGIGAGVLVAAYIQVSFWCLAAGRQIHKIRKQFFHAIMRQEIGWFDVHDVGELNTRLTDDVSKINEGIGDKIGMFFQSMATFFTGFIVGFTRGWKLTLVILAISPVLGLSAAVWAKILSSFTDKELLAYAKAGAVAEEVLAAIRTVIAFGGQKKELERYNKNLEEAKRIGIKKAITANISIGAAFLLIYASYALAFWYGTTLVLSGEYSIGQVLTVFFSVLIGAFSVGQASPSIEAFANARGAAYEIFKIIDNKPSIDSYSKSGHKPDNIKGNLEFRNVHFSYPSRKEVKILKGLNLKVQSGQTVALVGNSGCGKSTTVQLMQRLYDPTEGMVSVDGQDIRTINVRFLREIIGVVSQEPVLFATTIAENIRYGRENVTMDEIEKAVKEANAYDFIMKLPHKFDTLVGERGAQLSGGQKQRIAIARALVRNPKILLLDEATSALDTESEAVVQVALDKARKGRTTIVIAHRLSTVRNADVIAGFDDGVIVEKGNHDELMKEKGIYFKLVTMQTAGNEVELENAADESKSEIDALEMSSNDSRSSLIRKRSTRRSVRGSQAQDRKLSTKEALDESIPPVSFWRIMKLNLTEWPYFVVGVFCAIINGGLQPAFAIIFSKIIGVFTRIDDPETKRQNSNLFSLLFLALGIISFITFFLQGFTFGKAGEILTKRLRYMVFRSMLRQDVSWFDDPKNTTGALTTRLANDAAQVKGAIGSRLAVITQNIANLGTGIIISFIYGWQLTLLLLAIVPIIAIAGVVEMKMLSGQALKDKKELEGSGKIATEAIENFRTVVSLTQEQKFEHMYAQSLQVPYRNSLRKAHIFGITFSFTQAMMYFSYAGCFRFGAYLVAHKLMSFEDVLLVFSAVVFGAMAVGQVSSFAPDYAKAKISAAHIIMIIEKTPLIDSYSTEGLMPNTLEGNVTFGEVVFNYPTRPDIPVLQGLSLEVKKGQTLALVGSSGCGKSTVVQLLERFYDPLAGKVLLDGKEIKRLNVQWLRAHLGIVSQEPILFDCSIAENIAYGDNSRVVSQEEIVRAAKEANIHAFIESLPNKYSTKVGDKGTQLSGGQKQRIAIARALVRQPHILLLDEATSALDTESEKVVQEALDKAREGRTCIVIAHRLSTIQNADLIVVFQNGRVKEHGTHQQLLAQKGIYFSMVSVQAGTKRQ

Activity | Sequence
inhibitor [+] | CREMOPHOR EL
inhibitor [+] | PLURONIC L81
